Measurements: publication PMC11369081, “Molecular mechanism of prolactin-releasing peptide recognition and signaling via its G protein-coupled receptor” (Cell Discovery, 2024)
Peptide text beside a SMILES is read from it.

Experiments:
Type in all cases: cell-based
PrRPR L294A = biological target: T1, PrRPR L294A (Homo sapiens, UniProt P49683, L294A); test: BRET2 Gq dissociation, L294A; conditions: L294A (6.51), Gq-coupling, AD293 cells; mean ± S.E.M., n = 3; P <0.0001 vs WT; read-out: BRET2 pEC50 (converted)
T1 construct: Flag; expressed in transfected cells; host or cells: AD293 cells
T1 sequence (P49683 whole entry L294A): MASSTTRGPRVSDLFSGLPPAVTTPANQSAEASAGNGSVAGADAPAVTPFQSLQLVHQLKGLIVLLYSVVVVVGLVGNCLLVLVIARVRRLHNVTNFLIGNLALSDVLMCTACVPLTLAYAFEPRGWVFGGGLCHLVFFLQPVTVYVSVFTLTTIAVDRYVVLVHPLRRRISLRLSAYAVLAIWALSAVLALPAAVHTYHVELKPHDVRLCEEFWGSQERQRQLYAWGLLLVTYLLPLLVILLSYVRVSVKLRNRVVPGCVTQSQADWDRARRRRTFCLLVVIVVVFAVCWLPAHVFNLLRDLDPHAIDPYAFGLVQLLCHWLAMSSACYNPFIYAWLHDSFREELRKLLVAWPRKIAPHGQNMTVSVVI
Experimental: (§1) AD293 cells (Agilent) were propagated in Dulbecco’s Modified Eagle Medium (DMEM, Thermo Fisher Scientific), enriched with 10% fetal bovine serum (FBS, Thermo Fisher Scientific), and maintained at 37 °C in a 5% CO2 environment. Cells were then seeded in 6-well dishes at a density of 130,000–150,000 cells per mL and allowed to incubate overnight. On the next day, cells were transfected with plasmids at a 1:1:1:1 ratio for receptor:Gα-RLuc8:Gβ:Gγ-GFP2[52]. PEI MAX 40 K (BIOHUB) was utilized to form complex with the plasmids at a ratio of 3 µL PEI per µg of plasmids, in OptiMEM (Gibco-Thermo Fisher Scientific) at a concentration of 10 ng plasmids per µL OptiMEM. After 24 h of incubation, the culture was harvested by centrifugation with PBS. The cell suspension was then allocated into a white 384-well plate at a volume of 30 µL per well, followed by the addition of 10 µL of freshly prepared 50 µM coelenterazine 400a (Yeasen). […] Plates were subsequently read in a BioTek Synergy H1 microplate reader (BioTek) equipped with 395 nm (RLuc8-coelenterazine 400a) and 510 nm (GFP2) emission filters. BRET2 ratios were calculated as the ratio of the GFP2 emission to RLuc8 emission. […]
(§2) Supplementary Fig. S4 | Effects of mutations in the ligand-binding pocket and G protein intereface of Gq coupled PrRPR by BRET2 assay. […] BRET2 assay signals were measured after stimulation with PrRP20. […]

PrRPR L229A = biological target: T2, PrRPR L229A (Homo sapiens, UniProt P49683, L229A); test: BRET2 Gq dissociation, L229A; conditions: L229A (5.42), Gq-coupling, AD293 cells; mean ± S.E.M., n = 3; P <0.0001 vs WT; read-out: BRET2 pEC50 (converted)
T2 construct: Flag; expressed in transfected cells; host or cells: AD293 cells
T2 sequence (P49683 whole entry L229A): as the sequence (P49683 whole entry L294A) above, with L229A, A294L counted along it
Experimental: as §1, §2

PrRPR E213A = biological target: T3, PrRPR E213A (Homo sapiens, UniProt P49683, E213A); test: BRET2 Gq dissociation, E213A; conditions: E213A (45.52), Gq-coupling, AD293 cells; mean ± S.E.M., n = 3; P <0.0001 vs WT; read-out: BRET2 pEC50 (converted)
T3 construct: expressed in transfected cells; host or cells: AD293 cells
T3 sequence (P49683 whole entry E213A): as the sequence (P49683 whole entry L294A) above, with E213A, A294L counted along it
Experimental: as §1, §2

PrRPR E212A = biological target: T4, PrRPR E212A (Homo sapiens, UniProt P49683, E212A); test: BRET2 Gi dissociation, E212A; conditions: E212A (45.51), Gi-coupling, AD293 cells; mean ± S.E.M., n = 3; P <0.0001 vs WT; read-out: BRET2 pEC50 (converted)
T4 construct: expressed in transfected cells; host or cells: AD293 cells
T4 sequence (P49683 whole entry E212A): as the sequence (P49683 whole entry L294A) above, with E212A, A294L counted along it
Experimental: (§3) AD293 cells (Agilent) were propagated in Dulbecco’s Modified Eagle Medium (DMEM, Thermo Fisher Scientific), enriched with 10% fetal bovine serum (FBS, Thermo Fisher Scientific), and maintained at 37 °C in a 5% CO2 environment. Cells were then seeded in 6-well dishes at a density of 130,000–150,000 cells per mL and allowed to incubate overnight. On the next day, cells were transfected with plasmids at a 1:1:1:1 ratio for receptor:Gα-RLuc8:Gβ:Gγ-GFP2[52]. PEI MAX 40 K (BIOHUB) was utilized to form complex with the plasmids at a ratio of 3 µL PEI per µg of plasmids, in OptiMEM (Gibco-Thermo Fisher Scientific) at a concentration of 10 ng plasmids per µL OptiMEM. After 24 h of incubation, the culture was harvested by centrifugation with PBS. The cell suspension was then allocated into a white 384-well plate at a volume of 30 µL per well, followed by the addition of 10 µL of freshly prepared 50 µM coelenterazine 400a (Yeasen). Following a 15-min equilibration period, cells were treated with 10 µL of ligand for an additional 5 min. Plates were subsequently read in a BioTek Synergy H1 microplate reader (BioTek) equipped with 395 nm (RLuc8-coelenterazine 400a) and 510 nm (GFP2) emission filters. BRET2 ratios were calculated as the ratio of the GFP2 emission to RLuc8 emission. Data were normalized to the baseline response of the ligand. […]

PrRPR P142A = biological target: T5, PrRPR P142A (Homo sapiens, UniProt P49683, P142A); test: BRET2 Gq dissociation, P142A; conditions: P142A (3.33), Gq-coupling, AD293 cells; mean ± S.E.M., n = 3; P <0.0001 vs WT; read-out: BRET2 pEC50 (converted)
T5 construct: expressed in transfected cells; host or cells: AD293 cells
T5 sequence (P49683 whole entry P142A): as the sequence (P49683 whole entry L294A) above, with P142A, A294L counted along it
Experimental: as §1, §2

PrRPR H295A = biological target: T6, PrRPR H295A (Homo sapiens, UniProt P49683, H295A); test: BRET2 Gi dissociation, H295A; conditions: H295A (6.52), Gi-coupling, AD293 cells; mean ± S.E.M., n = 3; P 0.8032 vs WT; read-out: BRET2 pEC50 (converted)
T6 construct: Flag; expressed in transfected cells; host or cells: AD293 cells
T6 sequence (P49683 whole entry H295A): as the sequence (P49683 whole entry L294A) above, with A294L, H295A counted along it
Experimental: as §3

PrRPR Y225A = biological target: T7, PrRPR Y225A (Homo sapiens, UniProt P49683, Y225A); test: BRET2 Gq dissociation, Y225A; conditions: Y225A (5.38), Gq-coupling, AD293 cells; mean ± S.E.M., n = 3; P <0.0001 vs WT; read-out: BRET2 pEC50 (converted)
T7 construct: Flag; expressed in transfected cells; host or cells: AD293 cells
T7 sequence (P49683 whole entry Y225A): as the sequence (P49683 whole entry L294A) above, with Y225A, A294L counted along it
Experimental: as §1, §2

PrRPR T117A = biological target: T8, PrRPR T117A (Homo sapiens, UniProt P49683, T117A); test: BRET2 Gi dissociation, T117A; conditions: T117A (2.61), Gi-coupling, AD293 cells; mean ± S.E.M., n = 3; P <0.0001 vs WT; read-out: BRET2 pEC50 (converted)
T8 construct: expressed in transfected cells; host or cells: AD293 cells
T8 sequence (P49683 whole entry T117A): as the sequence (P49683 whole entry L294A) above, with T117A, A294L counted along it
Experimental: as §3

PrRPR T233A = biological target: T9, PrRPR T233A (Homo sapiens, UniProt P49683, T233A); test: BRET2 Gi dissociation, T233A; conditions: T233A (5.46), Gi-coupling, AD293 cells; mean ± S.E.M., n = 3; P <0.0001 vs WT; read-out: BRET2 pEC50 (converted)
T9 construct: Flag; expressed in transfected cells; host or cells: AD293 cells
T9 sequence (P49683 whole entry T233A): as the sequence (P49683 whole entry L294A) above, with T233A, A294L counted along it
Experimental: as §3

Work on `CC[C@H](C)[C@H](NC(=O)CNC(=O)[C@H](CCCNC(=N)N)NC(=O)[C@H](CO)NC(=O)[C@H](C)NC(=O)[C@H](Cc1ccc(O)cc1)NC(=O)[C@H](Cc1c[nH]c2ccccc12)NC(=O)[C@H](C)NC(=O)[C@@H]1CCCN1C(=O)[C@H](CC(N)=O)NC(=O)[C@@H](NC(=O)[C@H](CC(=O)O)NC(=O)[C@@H]1CCCN1C(=O)[C@@H](N)[C@@H](C)O)[C@@H](C)CC)C(=O)N[C@@H](CCCNC(=N)N)C(=O)N1CCC[C@H]1C(=O)N[C@H](C(=O)NCC(=O)N[C@@H](CCCNC(=N)N)C(=O)N[C@@H](Cc1ccccc1)C(N)=O)C(C)C` [PrRP20] (H-TPDINPAWYASRGIRPVGRF-NH2) yielded an EC50 (PrRPR L294A) of 5.62 nM, an EC50 (PrRPR L229A) of 20.4 nM and an EC50 (PrRPR E213A) of 282 nM. It also gave an EC50 (PrRPR E212A) of 398 nM, an EC50 (PrRPR P142A) of 4.79 nM and an EC50 (PrRPR H295A) of 3.02 nM. The EC50 (PrRPR Y225A) was 178 nM, the EC50 (PrRPR T117A) was 3470 nM and the EC50 (PrRPR T233A) was 18.6 nM.
